Measured values published in US20240327406A1, “POTASSIUM CHANNEL MODULATORS” (Autifony Therapeutics Limited, priority 2021, published 2024).

Test: In vitro metabolic stability, rat liver microsomes
Type: in vitro ADME
Conditions: CLint expressed as mL/min/g liver
Experimental: The objective of this study was to determine metabolic stability of test items in rat and human liver microsomes. Verapamil and dextromethorphan were used as positive controls for microsomal incubation.
Incubation medium was prepared by combining 11.2 mL of potassium phosphate monobasic and 38.8 mL of potassium phosphate dibasic, diluted to 1 L with water. Cryopreserved microsomes were thawed and kept on ice until use. Microsomes were then diluted in incubation to a protein concentration of 0.56 mg/mL. […]
NADPH regenerating system solution was prepared by dissolving 1.7 mg of NADP, 7.8 mg of G6P and 6 units of G6P-Dehydrogenase in 1 mL of 2% sodium bicarbonate solution (prepared by dissolving 20 g of NaHCO3 in 1 L of water).
Test compounds were separately dissolved in DMF to obtain 10 mM stock solutions that were further diluted in water/acetonitrile 50/50 (v/v) to obtain the corresponding 50 μM working solutions. Verapamil and dextromethorphan were dissolved in DMF in order to obtain a 10 mM verapamil solution and 10 mM dextromethorphan solution. These solutions were then diluted in the incubation medium in order to obtain a 50 μM verapamil working solution and a 50 μM dextromethorphan working solution.
800 μL-aliquots of NADPH regenerating system were pre-warmed at 37° C. for 5 minutes. 5 μL of 50 µM test compounds, verapamil or dextromethorphan were added to 445 μL of the 0.56 mg/mL microsomes solution and the incubation mixture was pre-warmed in a 96 deep well 2 mL plate (incubation plate) at 37° C. for 5 minutes. The incubation reactions were initiated by adding 50 μL of pre-warmed NADPH regenerating system to the incubation mixtures. 50 μL aliquots were taken from incubation mixtures at: 0, 3, 6, 9, 15, and 30 minutes and the reactions were stopped by adding 100 μL of aceronitrile with the corresponding internal standard. Samples were then diluted with 120 μL of water (final organic solvent percentage at 37%) and centrifuged at 3000 rpm for 10 minutes, prior the LC-MS/MS analysis.
Metabolic stability was calculated from the peak area ratio of the remaining test compound with internal standard versus time. The intrinsic clearance (CLint) was determined from the first order elimination constant k (min^−1) (obtained from GraphPad by plotting the natural logarithm of the peak area ratio of the remaining test item with internal standard versus time), using the actual volume of the incubation V (mL), the amount of hepatocytes in the incubation M (million cells) and the hepatocellularity number per a liver Hn (120 for human).

For `Cc1ccc(Oc2ccc(-n3c(=O)[nH]c4cccnc43)cn2)cc1OC(F)(F)F` [Example 4, 3-[6-[4-methyl-3-(trifluoromethoxy)phenoxy]-3-pyridyl]-1H-imidazo[4,5-b]pyridin-2-one], which Cli rat is on record?
Its Cli rat is 0.9 mL/min/g.

Which Cli rat does the source give for `O=c1[nH]c2cccnc2n1-c1cnc(Oc2cccc(OC(F)(F)F)c2)nc1` [Example 17, 3-[2-[3-(trifluoromethoxy)phenoxy]pyrimidin-5-yl]-1H-imidazo[4,5-b]pyridin-2-one] here?
Its Cli rat is <0.5 mL/min/g.

With `Cc1ccc(Oc2ncc(-n3c(=O)[nH]c4cccnc43)cn2)cc1OC(F)(F)F` [Example 32, 3-[2-[4-methyl-3-(trifluoromethoxy)phenoxy]pyrimidin-5-yl]-1H-imidazo[4,5-b]pyridin-2-one] as the compound, how does the Cli rat read?
Its Cli rat is 0.9 mL/min/g.
